Activity calls are given as the source filed them. The calls are words filed in the database; no cut-off is given here.
Columns and labels:
PC-3 [1] = assay: Induction of apoptosis in human PC3 cells assessed as DNA fragmentation at 5 ug/mL after 24 hrs by ELISA relative to control; type: functional
[2] = Cytotoxicity against human RC58T/h/SA#4 cells after 24 hrs by SRB assay; type: functional, cell-based
LNCaP = assay: Cytotoxicity against human LNCap cells after 24 hrs by SRB assay; type: functional, cell-based
PC-3 [3] = assay: Cytotoxicity against human PC3 cells after 24 hrs by SRB assay; type: functional, cell-based; settings: PC-3, 24 h
DU-145 = assay: Cytotoxicity against human DU145 cells after 24 hrs by SRB assay; type: functional, cell-based; settings: DU-145, 24 h
PC-3 [4] = assay: Growth inhibition of human PC3 cells by SRB assay; type: functional, cell-based; settings: TDE = time-dependent effect
PC-3 [5] = assay: Growth inhibition of human PC3 cells assessed as decrease in cell numbers by trypan blue assay; type: functional, cell-based
PC-3 [6] = assay: Induction of cell death in human PC3 cells by trypan blue assay; type: functional, cell-based
PC-3 [7] = assay: Induction of apoptosis in human PC3 cells after 24 hrs by Hoechst staining; type: functional, cell-based
PC-3 [8] = assay: Induction of apoptosis in human PC3 cells assessed as DNA fragmentation at 10 ug/mL after 24 hrs by ELISA relative to control; type: functional
PC-3 [9] = assay: Induction of apoptosis in human PC3 cells assessed as DNA fragmentation at 20 ug/mL after 24 hrs by ELISA relative to control; type: functional
PC-3 [10] = assay: Cell cycle arrest in human PC3 cells assessed as accumulation at subG1 phase after 24 hrs by flow cytometry; type: functional, cell-based
PC-3 [11] = assay: Induction of PARP cleavage in human PC3 cells after 24 hrs by Western blot; type: functional, cell-based
PC-3 [12] = assay: Induction of apoptosis in human PC3 cells assessed as caspase 8 activity at 10 ug/mL relative to control; type: functional
PC-3 [13] = assay: Induction of apoptosis in human PC3 cells assessed as caspase 9 activity at 10 ug/mL relative to control; type: functional
PC-3 [14] = assay: Induction of apoptosis in human PC3 cells assessed as caspase 3 activity at 10 ug/mL relative to control; type: functional
PC-3 [15] = assay: Reversal of induction of apoptosis in human PC3 cells in presence of caspase inhibitor Z-VAD-fmk; type: functional, cell-based
PC-3 [16] = assay: Induction of cell death in human PC3 cells in presence of caspase inhibitor Z-VAD-fmk; type: functional, cell-based
PC-3 [17] = assay: Increase in Bax protein expression in human PC3 cells by Western blot; type: functional, cell-based
PC-3 [18] = assay: Decrease in Bcl2 protein expression in human PC3 cells by Western blot; type: functional, cell-based
PC-3 [19] = assay: Induction of Bid protein cleavage in human PC3 cells by Western blot; type: functional, cell-based
PC-3 [20] = assay: Induction of AIF protein translocation into nucleus in human PC3 cells after 24 hrs by immunostaining; type: functional, cell-based
PC-3 [21] = assay: Induction of apoptosis in human PC3 cells assessed as caspase 3 activity at 5 ug/mL; type: functional, cell-based
PC-3 [22] = assay: Induction of apoptosis in human PC3 cells assessed as caspase 3 activity at 10 ug/mL; type: functional, cell-based
PC-3 [23] = assay: Induction of apoptosis in human PC3 cells assessed as caspase 3 activity at 20 ug/mL; type: functional, cell-based
PC-3 [24] = assay: Increase in AIF protein levels in human PC3 cells after 24 hrs by Western blot; type: functional, cell-based

| Compound | Fold change (PC-3 [1]) | IC50 [2] | IC50 (LNCaP) | IC50 (PC-3 [3]) | IC50 (DU-145) | Activity (PC-3 [4]) | Activity (PC-3 [5]) | Activity (PC-3 [6]) | Activity (PC-3 [7]) | Fold change (PC-3 [8]) | Fold change (PC-3 [9]) | Activity (PC-3 [10]) | Activity (PC-3 [11]) | Fold change (PC-3 [12]) | Fold change (PC-3 [13]) | Fold change (PC-3 [14]) | Activity (PC-3 [15]) | Activity (PC-3 [16]) | Activity (PC-3 [17]) | Activity (PC-3 [18]) | further results |
| --- | --- | --- | --- | --- | --- | --- | --- | --- | --- | --- | --- | --- | --- | --- | --- | --- | --- | --- | --- | --- | --- |
| C=CC[S+]([O-])SC (configuration not stated) | 1.3 | 25.3 µM | 29.7 µM | 62.9 µM | 85.8 µM | tde | Dose-dependent effect | Dose-dependent effect | Active | 1.7 | 1.8 | Dose-dependent effect | Active | 1.9 | 2.1 | 1.7 | Active | Active | Dose-dependent effect | Dose-dependent effect | Activity (PC-3 [19]): Active; Activity (PC-3 [20]): Active; Activity (PC-3 [21]): Active; Activity (PC-3 [22]): Active; Activity (PC-3 [23]): Active; Activity (PC-3 [24]): Active |
| CS[S+](C)[O-] (configuration not stated) | 1.3 | 96.1 µM | 102 µM | 166 µM | 184 µM | tde | Dose-dependent effect | Dose-dependent effect | Active | 1.7 | 1.8 | Dose-dependent effect | Active | 1.9 | 2.1 | 1.7 | Active | Active | Dose-dependent effect | Dose-dependent effect | Activity (PC-3 [19]): Active; Activity (PC-3 [20]): Active; Activity (PC-3 [21]): Active; Activity (PC-3 [22]): Active; Activity (PC-3 [23]): Active; Activity (PC-3 [24]): Active |

— ChEMBL document CHEMBL1142283, “Thiosulfinates from Allium tuberosum L. induce apoptosis via caspase-dependent and -independent pathways in PC-3 human prostate cancer cells” (Bioorg Med Chem Lett, 2008)
